Measured values as given in patent publication US20240164378A1, “SYNERGISTIC PLANT GROWTH STIMULANT COMPOSITIONS OF POTASSIUM MONO/DI-FORMATE WITH CARBOXYLIC ACIDS” (FERTIS INDIA PVT. LTD., priority 2021, published 2024).

Key:
[1] = tested on: paddy grains; experiment: Total phenol estimation in paddy grains; assay type: in vivo; settings: treatment applied with farmer practice (NPK)
[2] = tested on: paddy grains; experiment: Total protein content in paddy grains; assay type: in vivo; settings: treatment applied with farmer practice (NPK)

Compound	Total phenol Conc ppm in paddy grains [1]	% of Protein (total protein content in paddy grains) [2]
CC1=CC(=O)CC(C)(C)[C@@]1(O)/C=C/C(C)=C\C(=O)O [Abscisic acid]	18.78 ppm	0.008%
C=C1C[C@]23C[C@@]1(O)CC[C@H]2[C@@]12C=C[C@H](O)[C@@](C)(C(=O)O1)[C@H]2[C@@H]3C(=O)O [Gibberellic acid]	16.7 ppm	0.008%
COc1ccc2[nH]cc(CCNC(C)=O)c2c1 [Melatonin]	17.9 ppm	–
O=CO.O=C[O-].[K+] [Potassium diformate]	19.97 ppm	0.012%
O=C[O-].[K+] [Potassium formate]	19.88 ppm	0.011%
